Measurements taken from patent publication US9597527B2, “Enhancement of penetration and action” (Merck Patent GmbH, priority 2010, dated 2017).

Assay: In vitro skin permeation, Franz-type diffusion cells, with light device irradiation
Assay type: in vitro ADME, pig
Details: Fucicort cream 4 mg/cm^2 on SC, p<0.005
Procedure: Full Thickness skin is removed from the back of pig ears. The subcutaneous tissue is removed and the skin is mounted in open two-chamber Franz-type diffusion cells (diffusion area: 3.14 cm^−2; recipient volume: 10 ml). Temperature is kept at 32° C. at the skin surface. Recipient phase is a 0.05 M isotonic acetate buffer, pH 4.5, and 2-propanol (80:20%, vol/vol). The experiments are carried out under sink condition.
The test formulation (4 mg/cm^2) is applied to the stratum corneum (SC) side of the skin. The treatment is reapplied at 3, 21, 27, 45, and 51 h, which simulates the actual dosage regimen in patients. At appropriate times (3, 21, 27, 45, 51, and 70 h) a specific amount of recipient phase is withdrawn and replaced by thermostated fluid. Samples are kept at 4° C. for a maximum of 2 days until high-performance liquid chromatography (HPLC) analysis. All permeation experiments are carried out in 6 replicates.
The same experiment as described above is carried out.
The same experiment as described above is carried out. Again, the skin is irradiated for 2 h after each application of the cream, but with the devices Dev4-6 of Example 4 in three separate runs, one run for each device. The devices are positioned directly above the SC. If the cream is applied or reapplied the light emitting device is repositioned on the SC 5 minutes afterwards. After having the skin irradiated for 1 h, the irradiation source is removed from the skin. Again samples of the recipient are taken and analyzed by HPLC in time intervals given above.

- permeation enhanced as compared to the control experiment (skin irradiated for 30 min with IR device Dev5, positioned 5 minutes after application): 20%
- permeation enhanced as compared to the control experiment (skin irradiated for 2 h after each application with IR devices Dev4-6, one run each, all three devices): more than 27%
- permeation enhanced as compared to the control experiment (skin irradiated for 2 h after each application with device Dev1 (red OLED), recipient samples by HPLC): 14%
SMILES: C[C@H]1C[C@H]2[C@@H]3CCC4=CC(=O)C=C[C@]4(C)[C@@]3(F)[C@@H](O)C[C@]2(C)[C@@]1(O)C(=O)CO [betamethasone]
